# Source: PubChem BioAssay (NCI)
#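 These data come from cells grown in 96-well plates and exposed to compound for 48 hours at five concentrations. TGI marks complete inhibition of growth.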
# Key:
# Experiment in all cases: inhibition of tumour cell growth, NCI panel, 48 h
# [1] = tested on: HCT-15 colon
# [2] = tested on: MOLT-4 leukemia
# [3] = tested on: HOP-92 NSCLC
# [4] = tested on: SNB-75 CNS
# [5] = tested on: OVCAR-3 ovarian
# [6] = tested on: SR leukemia
# [7] = tested on: RXF 393 renal
# [8] = tested on: MDA-MB-231 breast
# [9] = tested on: OVCAR-8 ovarian
# [10] = tested on: SK-OV-3 ovarian
# [11] = tested on: HS 578T breast
# [12] = tested on: ACHN renal
# [13] = tested on: SK-MEL-28 melanoma
# [14] = tested on: SW-620 colon
# [15] = tested on: SF-295 CNS
# [16] = tested on: MDA-N
# [17] = tested on: COLO 205 colon
# [18] = tested on: MCF7 breast
# [19] = tested on: UACC-62 melanoma
# [20] = tested on: NCI-H23 lung
# [21] = tested on: TK-10 renal
# [22] = tested on: T-47D breast
# [23] = tested on: NCI-H460 lung
# [24] = tested on: SN12C renal
# [25] = tested on: IGROV1 ovarian
# [26] = tested on: UACC-257 melanoma
# [27] = tested on: CAKI-1 renal
# [28] = tested on: EKVX NSCLC
# [29] = tested on: U251 CNS
# [30] = tested on: NCI-H226 lung
# [31] = tested on: SF-539 CNS
# [32] = tested on: SK-MEL-5 melanoma
# [33] = tested on: SF-268 CNS
# [34] = tested on: HCT-116 colon
# [35] = tested on: MDA-MB-435
# [36] = tested on: HL-60(TB) leukemia
# [37] = tested on: NCI-H522 lung
# [38] = tested on: CCRF-CEM leukemia
# [39] = tested on: HOP-62 NSCLC
# [40] = tested on: MALME-3M melanoma
# [41] = tested on: 786-0 renal
# [42] = tested on: OVCAR-5 ovarian
# [43] = tested on: PC-3 prostate
# [44] = tested on: A498 renal
# [45] = tested on: NCI/ADR-RES ovarian
# [46] = tested on: K-562 leukemia
# [47] = tested on: OVCAR-4 ovarian
# [48] = tested on: M14 melanoma
# [49] = tested on: KM12 colon
# [50] = tested on: BT-549 breast
# [51] = tested on: HT29 colon
# [52] = tested on: DU-145 prostate
# [53] = tested on: RPMI-8226 leukemia
# [54] = tested on: UO-31 renal
# [55] = tested on: SK-MEL-2 melanoma
# [56] = tested on: A549 NSCLC
# [57] = tested on: LOX IMVI melanoma
# [58] = tested on: SNB-19 CNS
# [59] = tested on: HCC-2998 colon
smiles,measurement,setting,value
COc1ccc(Cc2ccc3[nH]c(=O)cc(C)c3c2)cc1S(=O)(=O)O,TGI,[1],> 100 µM
same,TGI,[2],> 100 µM
same,TGI,[3],> 100 µM
same,TGI,[4],> 100 µM
same,TGI,[5],> 100 µM
same,TGI,[6],> 100 µM
same,TGI,[7],> 100 µM
same,TGI,[8],> 100 µM
same,TGI,[9],> 100 µM
same,TGI,[10],> 100 µM
same,TGI,[11],> 100 µM
same,TGI,[12],> 100 µM
same,TGI,[13],> 100 µM
same,TGI,[14],> 100 µM
same,TGI,[15],> 100 µM
same,TGI,[16],> 100 µM
same,TGI,[17],> 100 µM
same,TGI,[18],> 100 µM
same,TGI,[19],> 100 µM
same,TGI,[20],> 100 µM
same,TGI,[21],> 100 µM
same,TGI,[22],> 100 µM
same,TGI,[23],> 100 µM
same,TGI,[24],> 100 µM
same,TGI,[25],> 100 µM
same,TGI,[26],> 100 µM
same,TGI,[27],> 100 µM
same,TGI,[28],> 100 µM
same,TGI,[29],> 100 µM
same,TGI,[30],> 100 µM
same,TGI,[31],> 100 µM
same,TGI,[32],> 100 µM
same,TGI,[33],> 100 µM
same,TGI,[34],> 100 µM
same,TGI,[35],> 100 µM
same,TGI,[36],> 100 µM
same,TGI,[37],> 100 µM
same,TGI,[38],> 100 µM
same,TGI,[39],> 100 µM
same,TGI,[40],> 100 µM
same,TGI,[41],> 100 µM
same,TGI,[42],> 100 µM
same,TGI,[43],> 100 µM
same,TGI,[44],> 100 µM
same,TGI,[45],> 100 µM
same,TGI,[46],> 100 µM
same,TGI,[47],> 100 µM
same,TGI,[48],> 100 µM
same,TGI,[49],> 100 µM
same,TGI,[50],> 100 µM
same,TGI,[51],> 100 µM
same,TGI,[52],> 100 µM
same,TGI,[53],> 100 µM
same,TGI,[54],> 100 µM
same,TGI,[55],> 100 µM
same,TGI,[56],> 100 µM
same,TGI,[57],> 100 µM
same,TGI,[58],> 100 µM
COc1cc(/C=C2\N=C(c3ccccc3)N(c3nc4ccccc4s3)C2=O)cc(OC)c1OC,TGI,[1],> 100 µM
same,TGI,[2],46.6 µM
same,TGI,[3],74.5 µM
same,TGI,[4],61 µM
same,TGI,[5],60.4 µM
same,TGI,[6],42.5 µM
same,TGI,[7],50.7 µM
same,TGI,[8],> 100 µM
same,TGI,[9],> 100 µM
same,TGI,[11],> 100 µM
same,TGI,[12],84.5 µM
same,TGI,[13],> 100 µM
same,TGI,[14],> 100 µM
same,TGI,[15],> 100 µM
same,TGI,[16],54.4 µM
same,TGI,[18],> 100 µM
same,TGI,[20],> 100 µM
same,TGI,[21],> 100 µM
same,TGI,[22],> 100 µM
same,TGI,[23],> 100 µM
same,TGI,[24],82.4 µM
same,TGI,[25],> 100 µM
same,TGI,[26],> 100 µM
same,TGI,[27],> 100 µM
same,TGI,[28],> 100 µM
same,TGI,[29],> 100 µM
same,TGI,[30],> 100 µM
same,TGI,[31],> 100 µM
same,TGI,[32],> 100 µM
same,TGI,[33],> 100 µM
same,TGI,[34],> 100 µM
same,TGI,[35],84.6 µM
same,TGI,[36],> 100 µM
same,TGI,[37],35.8 µM
same,TGI,[39],> 100 µM
same,TGI,[41],69.3 µM
same,TGI,[42],> 100 µM
same,TGI,[43],> 100 µM
same,TGI,[44],> 100 µM
same,TGI,[45],62 µM
same,TGI,[46],> 100 µM
same,TGI,[47],68 µM
same,TGI,[48],> 100 µM
same,TGI,[49],> 100 µM
same,TGI,[59],> 100 µM
same,TGI,[50],59.4 µM
same,TGI,[51],> 100 µM
same,TGI,[52],> 100 µM
same,TGI,[53],16.7 µM
same,TGI,[54],> 100 µM
same,TGI,[55],> 100 µM
same,TGI,[56],> 100 µM
same,TGI,[57],> 100 µM
same,TGI,[58],> 100 µM
